Results published in US8680108B2, “Substituted fused aryl and heteroaryl derivatives as PI3K inhibitors” (Incyte Corporation, priority 2009, dated 2014).
Where a name gives a salt, the structure may show the parent alone.

Biological target: T1, PI3Kδ (p110δ/p85α) (Homo sapiens, UniProt O00329)
T1 construct: purchased Millipore (Bedford, Mass.)
Test: PI3Kδ scintillation proximity assay
Assay type: biochemical
Conditions: not given
Source text: Materials: [γ-^33P]ATP (10 mCi/mL) was purchased from Perkin-Elmer (Waltham, Mass.). Lipid kinase substrate, D-myo-Phosphatidylinositol 4,5-bisphosphate (PtdIns(4,5)P2)D (+)-sn-1,2-di-O-octanoylglyceryl, 3-O-phospho linked (PIP2), CAS 204858-53-7, was purchased from Echelon Biosciences (Salt Lake City, Utah). PI3Kδ (p110δ/p85α) was purchased from Millipore (Bedford, Mass.). ATP, MgCl2, DTT, EDTA, MOPS and CHAPS were purchased from Sigma-Aldrich (St. Louis, Mo.). Wheat Germ Agglutinin (WGA) YSi SPA Scintillation Beads was purchased from GE healthcare life sciences (Piscataway, N.J.).
Assay: The kinase reaction was conducted in polystyrene 384-well matrix white plate from Thermo Fisher Scientific in a final volume of 25 μL. Inhibitors were first diluted serially in DMSO and added to the plate wells before the addition of other reaction components. The final concentration of DMSO in the assay was 0.5%. The PI3K assays were carried out at room temperature in 20 mM MOPS, pH 6.7, 10 mM MgCl2, 5 mM DTT and CHAPS 0.03%. Reactions were initiated by the addition of ATP, the final reaction mixture consisted of 20 μM PIP2, 20 μM ATP, 0.2 μCi [γ-^33P] ATP, 4 nM PI3Kδ. Reactions were incubated for 210 minutes and terminated by the addition of 40 μL SPA beads suspended in quench buffer: 150 mM potassium phosphate pH 8.0, 20% glycerol. 25 mM EDTA, 400 μM ATP. The final concentration of SPA beads is 1.0 mg/mL. After the plate sealing, plates were shaken overnight at room temperature and centrifuged at 1800 rpm for 10 minutes, the radioactivity of the product was determined by scintillation counting on Topcount (Perkin-Elmer). IC50 determination was performed by fitting the curve of percent control activity versus the log of the inhibitor concentration using the GraphPad Prism® 3.0 software.

T1 sequence (O00329 whole entry): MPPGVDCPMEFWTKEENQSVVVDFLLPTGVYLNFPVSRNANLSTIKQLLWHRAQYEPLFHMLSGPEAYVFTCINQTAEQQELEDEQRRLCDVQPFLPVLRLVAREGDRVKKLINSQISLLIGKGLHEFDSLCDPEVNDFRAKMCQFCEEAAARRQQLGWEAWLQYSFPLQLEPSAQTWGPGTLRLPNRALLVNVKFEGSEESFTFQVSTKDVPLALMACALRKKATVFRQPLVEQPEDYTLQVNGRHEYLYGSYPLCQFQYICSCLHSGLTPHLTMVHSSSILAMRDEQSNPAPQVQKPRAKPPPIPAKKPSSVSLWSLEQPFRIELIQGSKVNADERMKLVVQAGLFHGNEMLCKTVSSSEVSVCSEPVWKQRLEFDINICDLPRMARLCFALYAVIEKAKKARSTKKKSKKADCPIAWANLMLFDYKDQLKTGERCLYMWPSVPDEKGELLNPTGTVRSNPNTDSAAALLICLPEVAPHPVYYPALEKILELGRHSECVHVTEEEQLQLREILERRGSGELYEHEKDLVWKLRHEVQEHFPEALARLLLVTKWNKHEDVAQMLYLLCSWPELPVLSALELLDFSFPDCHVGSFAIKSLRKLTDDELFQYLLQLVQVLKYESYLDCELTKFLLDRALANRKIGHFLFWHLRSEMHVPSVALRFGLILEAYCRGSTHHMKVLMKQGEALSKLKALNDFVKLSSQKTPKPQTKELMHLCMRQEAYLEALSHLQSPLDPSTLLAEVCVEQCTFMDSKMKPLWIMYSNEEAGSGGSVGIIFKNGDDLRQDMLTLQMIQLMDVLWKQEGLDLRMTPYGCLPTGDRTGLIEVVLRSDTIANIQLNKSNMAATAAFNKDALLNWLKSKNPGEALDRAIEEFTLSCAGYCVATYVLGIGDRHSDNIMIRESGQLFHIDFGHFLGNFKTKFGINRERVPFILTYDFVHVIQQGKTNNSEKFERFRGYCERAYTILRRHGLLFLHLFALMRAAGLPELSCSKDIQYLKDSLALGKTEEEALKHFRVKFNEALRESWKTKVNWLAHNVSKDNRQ
T1 sequence (P27986 whole entry partner): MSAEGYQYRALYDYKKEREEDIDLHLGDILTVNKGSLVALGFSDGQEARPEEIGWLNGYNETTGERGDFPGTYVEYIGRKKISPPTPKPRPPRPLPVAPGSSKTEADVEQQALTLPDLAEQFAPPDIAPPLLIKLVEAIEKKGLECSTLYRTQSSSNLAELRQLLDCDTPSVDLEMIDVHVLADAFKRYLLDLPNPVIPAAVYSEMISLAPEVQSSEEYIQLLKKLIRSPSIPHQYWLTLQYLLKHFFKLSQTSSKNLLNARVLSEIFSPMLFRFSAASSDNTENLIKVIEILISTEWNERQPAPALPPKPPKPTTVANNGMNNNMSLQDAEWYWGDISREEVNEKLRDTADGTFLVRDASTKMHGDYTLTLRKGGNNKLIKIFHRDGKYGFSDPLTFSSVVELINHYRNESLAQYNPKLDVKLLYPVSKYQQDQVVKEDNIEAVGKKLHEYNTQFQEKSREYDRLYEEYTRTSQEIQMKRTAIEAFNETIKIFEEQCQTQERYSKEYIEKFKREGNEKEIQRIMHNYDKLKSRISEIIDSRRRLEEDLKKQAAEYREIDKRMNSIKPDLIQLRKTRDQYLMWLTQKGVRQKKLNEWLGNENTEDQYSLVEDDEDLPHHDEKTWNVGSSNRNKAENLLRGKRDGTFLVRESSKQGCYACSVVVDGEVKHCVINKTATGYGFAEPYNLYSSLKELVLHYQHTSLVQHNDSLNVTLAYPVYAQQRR

`CC(Nc1ncnc2[nH]cnc12)c1cc(F)c2ccnnc2c1-c1cc(F)cc(F)c1` (single isomer, unassigned) [Example 30, N-{1-[8-(3,5-difluorophenyl)-5-fluorocinnolin-7-yl]ethyl}-9H-purin-6-amine trifluoroacetate] and `CC(Nc1ncnc2[nH]cnc12)c1cc(Cl)c2ccnnc2c1-c1cncc(F)c1` (single isomer, unassigned) [Example 35, N-{1-[5-chloro-8-(5-fluoropyridin-3-yl)cinnolin-7-yl]ethyl}-9H-purin-6-amine trifluoroacetate] cannot be ordered by IC50: > 1000 nM for the first, > 1000 nM for the second.

Compared with `CC(Nc1ncnc2[nH]cnc12)c1cc(Cl)c2cccnc2c1N1CC[C@H](F)C1` (mixture of isomers) [Example 57, N-(1-{5-Chloro-8-[(3S)-3-fluoropyrrolidin-1-yl]quinolin-7-yl}ethyl)-9H-purin-6-amine bis(trifluoroacetate)], `CC(Nc1ncnc2[nH]cnc12)c1cc(Cl)c2cccnc2c1N1CCC(F)CC1` (stereo not shown) [Example 62, N-{1-[5-Chloro-8-(4-fluoropiperidin-1-yl)quinolin-7-yl]ethyl}-9H-purin-6-amine bis(trifluoroacetate)] is lower in IC50: 250 to 500 nM for the first, 100 to 250 nM for the second.

First: CC(Nc1ncnc2[nH]cnc12)c1cc(Cl)c2cccnc2c1N1CCN(C2CC2)CC1 (stereo not shown) [Example 66, N-{1-[5-Chloro-8-(4-cyclopropylpiperazin-1-yl)quinolin-7-yl]ethyl}-9H-purin-6-amine tris(trifluoroacetate)]
Second: CC(Nc1ncnc2[nH]cnc12)c1cc(Cl)c2cccnc2c1N1CCC(N2CCCCC2)CC1 (stereo not shown) [Example 70, N-{1-[8-(1,4′-Bipiperidin-1′-yl)-5-chloroquinolin-7-yl]ethyl}-9H-purin-6-amine tris(trifluoroacetate)]
The IC50 of the first is lower: < 50 nM for the first, 50 to 100 nM for the second.

First: CC(Nc1ncnc2[nH]cnc12)c1ccc2cccnc2c1-c1cncc(F)c1 (stereo not shown) [Example 9, N-{1-[8-(5-fluoropyridin-3-yl)quinolin-7-yl]ethyl}-9H-purin-6-amine tris-trifluoroacetate]
Second: CC(Nc1ncnc2[nH]cnc12)c1ccc2cccnc2c1-c1cccc(F)c1 (stereo not shown) [Example 8, N-{1-[8-(3-fluorophenyl)quinolin-7-yl]ethyl}-9H-purin-6-amine bis-trifluoroacetate]
The IC50 of the first is higher: 500 to 1000 nM for the first, 250 to 500 nM for the second.

`CC(=O)N1CCC(C(=O)N2CCN(c3c(C(C)Nc4ncnc5[nH]cnc45)cc(Cl)c4cccnc34)CC2)CC1` (stereo not shown) [Example 94, N-[1-(8-{4-[(1-Acetylpiperidin-4-yl)carbonyl]piperazin-1-yl}-5-chloroquinolin-7-yl)ethyl]-9H-purin-6-amine bis(trifluoroacetate)] and `COCC(=O)N1CCN(c2c(C(C)Nc3ncnc4[nH]cnc34)cc(Cl)c3cccnc23)CC1` (stereo not shown) [Example 87, N-(1-{5-Chloro-8-[4-(methoxyacetyl)piperazin-1-yl]quinolin-7-yl}ethyl)-9H-purin-6-amine bis(trifluoroacetate)] cannot be ordered by IC50: < 50 nM for the first, < 50 nM for the second.

`CCC(Nc1ncnc2[nH]cnc12)c1cc(Cl)c2ccnnc2c1-c1cccc(F)c1` (single isomer, unassigned) [Example 33, N-{1-[5-chloro-8-(3-fluorophenyl)cinnolin-7-yl]propyl}-9H-purin-6-amine] and `CC(Nc1ncnc2[nH]cnc12)c1cc(Cl)c2cccnc2c1-c1cccc(F)c1` (stereo not shown) [Example 15, N-{1-[5-chloro-8-(3-fluorophenyl)quinolin-7-yl]ethyl}-9H-purin-6-amine bis-trifluoroacetate] cannot be ordered by IC50: < 50 nM for the first, < 50 nM for the second.

Compared with `CC(Nc1ncnc2[nH]cnc12)c1cc(Cl)c2cccnc2c1N1CCN(C(=O)c2ccccc2F)CC1` (stereo not shown) [Example 93, N-(1-{5-Chloro-8-[4-(2-fluorobenzoyl)piperazin-1-yl]quinolin-7-yl}ethyl)-9H-purin-6-amine bis(trifluoroacetate)], `CC(Nc1ncnc2[nH]cnc12)c1cc(Cl)c2cccnc2c1N1CCN(C(=O)c2ccccc2)CC1` (stereo not shown) [Example 89, N-(1-[8-(4-Benzoylpiperazin-1-yl)-5-chloroquinolin-7-yl]ethyl}-9H-purin-6-amine bis(trifluoroacetate)] is lower in IC50: 250 to 500 nM for the first, 50 to 100 nM for the second. The second is the more potent here.

`COC(=O)NC1CCN(c2c(C(C)Nc3ncnc4[nH]cnc34)cc(Cl)c3cccnc23)CC1` (stereo not shown) [Example 83, Methyl(1-{5-Chloro-7-[1-(9H-purin-6-ylamino)ethyl]quinolin-8-yl}piperidin-4-yl)carbamate bis(trifluoroacetate)] and `CC(=O)N[C@H]1CCN(c2c(C(C)Nc3ncnc4[nH]cnc34)cc(Cl)c3cccnc23)C1` (stereo partly drawn) [Example 13, N-((3S)-1-{5-chloro-7-[1-(9H-purin-6-ylamino)ethyl]quinolin-8-yl}pyrrolidin-3-yl}acetamide bis-trifluoroacetate] cannot be ordered by IC50: < 50 nM for the first, < 50 nM for the second.

First: CC(Nc1ncnc2[nH]cnc12)c1cc(Cl)c2ccnnc2c1-c1ccccc1F (single isomer, unassigned) [Example 27, N-{1-[5-Chloro-8-(2-fluorophenyl)cinnolin-7-yl]ethyl}-9H-purin-6-amine]
Second: CC(Nc1ncnc2[nH]cnc12)c1cc(Cl)c2ccccc2c1-c1cccc(F)c1 (stereo not shown) [Example 46, N-{1-[4-Chloro-1-(3-fluorophenyl)-2-naphthyl]ethyl}-9H-purin-6-amine]
The IC50 of the first is lower: 50 to 100 nM for the first, 100 to 250 nM for the second.

`CC(Nc1nc(N)nc2[nH]cnc12)c1ccc2ccccc2c1-c1cncc(F)c1` (stereo not shown) [Example 3, N(6)-{1-[1-(5-fluoropyridin-3-yl)-2-naphthyl]ethyl}-9H-purine-2,6-diamine bis-trifluoroacetate] and `CC(Nc1ncnc2[nH]cnc12)c1ccc2ccccc2c1-c1cncc(F)c1` (stereo not shown) [Example 5, N-{1-[1-(5-fluoropyridin-3-yl)-2-napthyl]ethyl}-9H-purin-6-amine bis-trifluoroacetate] cannot be ordered by IC50: < 50 nM for the first, < 50 nM for the second.

`CC(Nc1ncnc2[nH]cnc12)c1cc(Cl)c2cccnc2c1N1CCN(CCO)CC1` (stereo not shown) [Example 58, 2-(4-{5-Chloro-7-[1-(9H-purin-6-ylamino)ethyl]quinolin-8-yf}piperazin-1-yl)ethanol tris(trifluoroacetate)] and `CC(Nc1ncnc2[nH]cnc12)c1cc(Cl)c2cccnc2c1N1CCN(C(=O)c2ccn(C)n2)CC1` (stereo not shown) [Example 101, N-[1-(5-Chloro-8-{4-[(1-methyl-1H-pyrazol-3-yl)carbonyl]piperazin-1-yl}quinolin-7-yl)ethyl]-9H-purin-6-amine bis(trifluoroacetate)] cannot be ordered by IC50: < 50 nM for the first, < 50 nM for the second.

`CC(Nc1ncnc2[nH]cnc12)c1cc(Cl)c2cccnc2c1N1CCN(C(=O)c2cccnc2)CC1` (stereo not shown) [Example 96, N-(1-{5-Chloro-8-[4-(pyridin-3-ylcarbonyl)piperazin-1-yl]quinolin-7-yl}ethyl)-9H-purin-6-amine tris(trifluoroacetate)] and `CC(Nc1ncnc2[nH]cnc12)c1cc(Cl)c2cccnc2c1N1CCN(C(=O)c2ccccn2)CC1` (stereo not shown) [Example 95, N-(1-{5-Chloro-8-[4-(pyridin-2-ylcarbonyl)piperazin-1-yl]quinolin-7-yl}ethyl)-9H-purin-6-amine tris(trifluoroacetate)] cannot be ordered by IC50: < 50 nM for the first, < 50 nM for the second.

First: COC[C@H]1CCCN1c1c(C(C)Nc2ncnc3[nH]cnc23)cc(Cl)c2cccnc12 (mixture of isomers) [Example 14, N-(1-{5-chloro-8-[(2R)-2-(methoxymethyl)pyrrolidin-1-yl]quinolin-7-yl}ethyl)-9H-purin-6-amine bis-trifluoroacetate]
Second: CC(Nc1ncnc2[nH]cnc12)c1ccc2cccnc2c1-c1cc(F)cc(F)c1 (stereo not shown) [Example 6, N-{1-[8-(3,5-difluorophenyl)quinolin-7-yl]ethyl}-9H-purin-6-amine bis-trifluoroacetate]
The IC50 of the first is lower: 100 to 250 nM for the first, 500 to 1000 nM for the second. The first is the more potent here.

With `Cc1nc(C(C)Nc2ncnc3[nH]cnc23)c(-c2cccc(F)c2)c2ccccc12` (stereo not shown) [Example 44, N-{1-[4-(3-Fluorophenyl)-1-methylisoquinolin-3-yl]ethyl}-9H-purin-6-amine] the IC50 was 100 to 250 nM.

Same assay, conditions: separated isomer, 1st peak

Compared with `CC(Nc1ncnc2[nH]cnc12)c1cc(Cl)c2cccnc2c1-c1ccccc1F` (stereo not shown) [Example 10, N-{1-[5-chloro-8-(2-fluorophenyl)quinolin-7-yl]ethyl}-9H-purin-6-amine bis-trifluoroacetate], `CC(Nc1ncnc2[nH]cnc12)c1cc(Cl)c2cccnc2c1N1CCC(c2ccccc2)C1` (stereo not shown) [Example 76, N-{1-[5-Chloro-8-(3-phenylpyrrolidin-1-yl)quinolin-7-yl]ethyl}-9H-purin-6-amine tris(trifluoroacetate)] is higher in IC50: 100 to 250 nM for the first, 250 to 500 nM for the second. The first is the more potent here.

Same assay, conditions: separated isomer, 2nd peak

First: CC(Nc1ncnc2[nH]cnc12)c1cc(Cl)c2cccnc2c1-c1ccccc1F (stereo not shown) [Example 10, N-{1-[5-chloro-8-(2-fluorophenyl)quinolin-7-yl]ethyl}-9H-purin-6-amine bis-trifluoroacetate]
Second: CC(Nc1ncnc2[nH]cnc12)c1cc(Cl)c2cccnc2c1N1CCC(c2ccccc2)C1 (stereo not shown) [Example 76, N-{1-[5-Chloro-8-(3-phenylpyrrolidin-1-yl)quinolin-7-yl]ethyl}-9H-purin-6-amine tris(trifluoroacetate)]
The IC50 of the first is lower: < 50 nM for the first, 250 to 500 nM for the second. The first is the more potent here.
